Patent US9676708B2 (The Johns Hopkins University, priority 2012, dated 2017)
Counter-ions that a name gives are not always drawn. Like-named read-outs stand apart in the source and are kept apart here.

What was measured:
[1] = pH 7.4; see U.S. Pat. No. 8,030,356; cited from earlier work
[2] = HNO yield from N2O headspace analysis after complete decomposition, compared to 2BrPA; type: physicochemical; details: for % HNO: 37° C. in PBS (pH 7.4), N2O headspace analysis, reported in comparison to 2BrPA (SEM 5%; n = 3); for HNO production compared to 2BrPA: in words; for HNO yield: of the amount of HNO from 2BrPA
From the text: As used herein, a compound is a “nitroxyl donor” if it donates nitroxyl under physiological conditions. As used herein, the presently disclosed nitroxyl donors alternatively may be referred to as “a compound” or “the compound.” Preferably, the nitroxyl donor is capable of donating an effective amount of nitroxyl in vivo and has a safety profile indicating the compound would be tolerated by an individual in the amount necessary to achieve a therapeutic effect. One of ordinary skill in the art would be able to determine the safety of administering particular compounds and dosages to live subjects. One of skill in the art also may determine whether a compound is a nitroxyl donor by evaluating whether it releases HNO under physiological conditions. Compounds are easily tested for nitroxyl donation with routine experiments. Although it is impractical to directly measure whether nitroxyl is donated, several tests are accepted for determining whether a compound donates nitroxyl. For example, the compound of interest can be placed in solution, for example in water, in a sealed container. After sufficient time for disassociation has elapsed, such as from several minutes to several hours, the headspace gas is withdrawn and analyzed to determine its composition, such as by gas chromatography and/or mass spectroscopy. If the gas N2O is formed (which occurs by HNO dimerization), the test is positive for nitroxyl donation and the compound is a nitroxyl donor. The level of nitroxyl-donating ability may be expressed as a percentage of a compound's theoretical maximum. A compound that donates a “significant level of nitroxyl” intends a compound that donates 40% or more or 50% or more of its theoretical maximum amount of nitroxyl. In one variation, the compounds for use herein donate 60% or more of the theoretical maximum amount of nitroxyl. In another variation, the compounds for use herein donate 70% or more of the theoretical maximum amount of nitroxyl. In another variation, the compounds for use herein donate 80% or more of the theoretical maximum amount of nitroxyl. In another variation, the compounds for use herein donate 90% or more of the theoretical maximum amount of nitroxyl. In yet another variation, the compounds for use herein donate between about 70% and about 90% of the theoretical maximum amount of nitroxyl. In yet another variation, the compounds for use herein donate between about 85% and about 95% of the theoretical maximum amount of nitroxyl. In yet another variation, the compounds for use herein donate between about 90% and about 95% of the theoretical maximum amount of nitroxyl.

[3] = Decomposition of 2-bromo-benzenesulfonamidyl-alkylamino carbonates 2 (2BrPA release) in PBS, UV/vis or HPLC; type: physicochemical
Experimental: The donor 2BrPA produces HNO in high yield at pH 7.4 with a single defined half-life of approximately 2 minutes. See U.S. Pat. No. 8,030,356, to Toscano et al., which is incorporated herein by reference in its entirety. Changing (R) on the trigger amine or the spacer length (n) in 2 makes it possible to tune the effective HNO production rate through controlled 2BrPA release (Table 2). Donors 2, with release rates slower than the half-life of 2BrPA, produce HNO at the rate of cyclization. The decomposition products, rates, and HNO production were analyzed and compared to 2BrPA (Table 2).

[4] = Monitoring of 2d decomposition byproducts by NMR; type: physicochemical; details: decomposition of 2d
From the text: The cyclized byproduct 3, expected from an HNO forming pathway, from 2d, formed in approximately 60% yield (Scheme 4). The yield of 3 is consistent with the yield of HNO detected (64%) (Table 2). The cyclized product 5 also was identified and formed in approximately 10% yield. Another byproduct formed in approximately 30% yield.

| SMILES | % HNO [2] | HNO production compared to 2BrPA [2] | HNO yield [2] | other results |
| --- | --- | --- | --- | --- |
| O=S(=O)(NO)c1ccccc1Br [2BrPA, N-hydroxy-2-bromobenzenesulfonamide] | – | – | – | HNO production [1]: high yield |
| CNCCOC(=O)ONS(=O)(=O)c1ccccc1Br.Cl [Cmpd 2a, 2-Bromo-benzenesulfonamidyl-2-(methylamino)-ethyl carbonate hydrochlor-ide] | 93% | – | – | – |
| Cl.O=C(OCCNCc1ccccc1)ONS(=O)(=O)c1ccccc1Br [Cmpd 2b, 2-Bromo-benzenesulfonamidyl-2-(benzylamino)-ethyl carbonate hydrochlori-de] | 99% | – | – | – |
| CC(C)NCCOC(=O)ONS(=O)(=O)c1ccccc1Br [Cmpd 2c, 2-Bromo-benzenesulfonamidyl-2-(iso-propylamino)-ethyl carbonate hydroc-hloride] | 97% | – | – | half-life ([3]; PBS buffer, pH 7.4, text, fast-releasing derivatives (UV/vis values of Table 2), PBS buffer, read-out: half-life): < 60 s; half-life ([3]; PBS, pH 7.4, 37° C. in PBS (pH 7.4), determined by UV/vis (SEM ± 5%; n = 3), read-out: t1/2 (converted)): 47 s |
| CC(C)(C)NCCOC(=O)ONS(=O)(=O)c1ccccc1Br [Cmpd 2d, 2-Bromo-benzenesulfonamidyl-2-(tert-butylamino)-ethyl carbonate hydrochl-oride] | 64% | significantly lower | 64% | yield of another byproduct [4]: approximately 30%; yield of cyclized byproduct 3 (HNO forming pathway) [4]: approximately 60%; yield of cyclized product 5 [4]: approximately 10%; half-life ([3]; PBS, pH 7.4, 37° C. in PBS (pH 7.4), determined by HPLC (SEM ± 5%; n = 3), read-out: t1/2 (converted)): 2820 s |
| Cl.O=C(OCCNc1ccccc1)ONS(=O)(=O)c1ccccc1Br [Cmpd 2e, 2-Bromo-benzenesulfonamidyl-2-(phenylamino)-ethyl carbonate hydrochlo-ride] | 91% | – | – | – |
| CC(C)NCCCOC(=O)ONS(=O)(=O)c1ccccc1Br.Cl [Cmpd 2h, 2-Bromo-benzenesulfonamidyl-3-(iso-propylamino)-propyl carbonate hydro-chloride] | 30% | significantly lower | 30% | – |
| COc1ccc(NCCOC(=O)ONS(=O)(=O)c2ccccc2Br)cc1 [hydrochloride] | 93% | – | – | half-life ([3]; 37° C. in PBS (pH 7.4), determined by UV/vis (SEM ± 5%; n = 3), read-out: t1/2 (converted)): 50 s; half-life ([3]; pH 7.4, fast-releasing derivatives (UV/vis values of Table 2), PBS buffer, read-out: half-life): 48 s |
| O=C(OCCNc1ccc(Cl)cc1)ONS(=O)(=O)c1ccccc1Br [hydrochloride] | 69% | significantly lower | 69% | half-life ([3]; PBS, pH 7.4, slow-releasing derivatives (HPLC values of Table 2), read-out: half-life): 3000 s |
